In patent publication US20250243180A1, “TARGETED PROTEIN DEGRADATION” (Monte Rosa Therapeutics AG, priority 2023, published 2025):
Where two headings read alike, the source gives them in different places.

Columns and labels:
CRBN-DDB1 = CRBN-DDB1 (Homo sapiens (Human), UniProt Q96SW2); assay: Compound binding to CRBN by HTRF assay
Outline: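 HTRF displacement of Cy5-thalidomide probe (100 nM) from His-tagged CRBN-DDB1 (2.5 nM) with anti-His terbium cryptate, in HEPES/NaCl/TCEP/EDTA/Tween20 buffer; 11-point 1:3 dilution series, 30 min at ambient temperature. Signal (665/620 nm) normalized to lenalidomide and DMSO controls; EC50 fitted, Ki by Cheng-Prusoff from geometric mean EC50.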

NEK7 = NEK7 (Homo sapiens (Human), UniProt Q8TDX7+Q96SW2); assay: NEK7 NanoBiT degradation assay in Cal51 NEK7 NanoBiT cell line; type: cell-based; conditions: Cal51 NEK7 NanoBiT cells, 24 hours; for Dmax: CAL-51
NEK7, sequence (Q8TDX7 whole entry): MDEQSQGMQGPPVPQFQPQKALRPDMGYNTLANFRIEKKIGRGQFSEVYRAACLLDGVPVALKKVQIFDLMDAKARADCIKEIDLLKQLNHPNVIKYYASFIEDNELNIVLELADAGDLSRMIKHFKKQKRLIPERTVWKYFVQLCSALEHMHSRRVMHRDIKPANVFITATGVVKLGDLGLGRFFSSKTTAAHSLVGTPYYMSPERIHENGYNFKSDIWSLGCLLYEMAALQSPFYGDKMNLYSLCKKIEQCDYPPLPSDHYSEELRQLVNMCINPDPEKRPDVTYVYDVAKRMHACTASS
NEK7, sequence (Q96SW2 whole entry): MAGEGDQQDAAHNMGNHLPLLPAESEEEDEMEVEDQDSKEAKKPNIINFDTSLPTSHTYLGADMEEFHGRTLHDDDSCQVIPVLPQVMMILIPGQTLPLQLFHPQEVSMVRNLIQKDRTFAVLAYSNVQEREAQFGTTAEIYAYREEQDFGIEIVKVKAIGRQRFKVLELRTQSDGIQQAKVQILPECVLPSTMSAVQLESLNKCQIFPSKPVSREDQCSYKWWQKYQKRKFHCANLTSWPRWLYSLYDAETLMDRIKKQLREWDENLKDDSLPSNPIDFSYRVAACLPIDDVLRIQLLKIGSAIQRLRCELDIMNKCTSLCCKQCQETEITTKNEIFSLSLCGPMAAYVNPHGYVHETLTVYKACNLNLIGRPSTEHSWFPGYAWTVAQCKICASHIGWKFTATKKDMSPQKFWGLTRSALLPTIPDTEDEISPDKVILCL
NEK7, sequence (Q16531 2-1140 partner): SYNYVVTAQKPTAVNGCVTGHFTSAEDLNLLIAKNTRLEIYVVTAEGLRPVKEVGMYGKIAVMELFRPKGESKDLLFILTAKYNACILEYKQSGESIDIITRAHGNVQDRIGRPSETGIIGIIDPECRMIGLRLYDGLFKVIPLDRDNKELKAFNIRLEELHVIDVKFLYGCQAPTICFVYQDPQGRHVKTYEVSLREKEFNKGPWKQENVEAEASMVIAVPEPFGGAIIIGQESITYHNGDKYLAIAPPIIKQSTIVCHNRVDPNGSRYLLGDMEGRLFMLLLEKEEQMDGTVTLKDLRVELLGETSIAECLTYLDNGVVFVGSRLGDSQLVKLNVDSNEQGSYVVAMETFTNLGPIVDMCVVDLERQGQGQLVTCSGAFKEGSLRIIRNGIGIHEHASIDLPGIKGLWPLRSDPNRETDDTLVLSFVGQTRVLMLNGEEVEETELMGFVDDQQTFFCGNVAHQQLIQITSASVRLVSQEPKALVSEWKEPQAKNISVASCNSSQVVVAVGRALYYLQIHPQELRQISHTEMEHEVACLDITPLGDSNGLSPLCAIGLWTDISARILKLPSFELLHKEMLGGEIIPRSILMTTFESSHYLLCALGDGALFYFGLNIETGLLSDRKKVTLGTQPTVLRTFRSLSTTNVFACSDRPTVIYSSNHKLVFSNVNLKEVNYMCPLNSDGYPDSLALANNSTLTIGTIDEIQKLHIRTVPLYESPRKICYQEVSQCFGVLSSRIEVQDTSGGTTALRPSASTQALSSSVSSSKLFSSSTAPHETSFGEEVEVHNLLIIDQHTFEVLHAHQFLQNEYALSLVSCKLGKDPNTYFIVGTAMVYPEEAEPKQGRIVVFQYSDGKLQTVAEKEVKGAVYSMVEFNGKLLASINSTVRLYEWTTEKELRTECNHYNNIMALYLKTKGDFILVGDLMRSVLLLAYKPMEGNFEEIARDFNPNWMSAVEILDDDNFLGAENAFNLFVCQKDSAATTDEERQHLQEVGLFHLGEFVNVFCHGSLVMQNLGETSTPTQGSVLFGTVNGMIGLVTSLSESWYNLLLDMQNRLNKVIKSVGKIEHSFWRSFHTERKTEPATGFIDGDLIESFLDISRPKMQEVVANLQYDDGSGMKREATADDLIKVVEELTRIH
Outline: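 Cal51 cells with CRISPR knock-in HiBiT-tagged endogenous NEK7 plus stable LgBiT, in live-cell Endurazine medium, seeded 16 h before dosing. Compounds at final 1 μM to 0.05 nM for 24 h at 37 °C, then luminescence read. Response normalized to plate controls and fitted with a 4-parameter logistic giving EC50.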

[1] = NEK7 degradation, read-out: NanoBiT Dmax
[2] = NEK7 degradation, read-out: NanoBiT DC50

CRBN-DDB1, sequence (Q96SW2 whole entry): as the sequence (Q96SW2 whole entry) above
CRBN-DDB1, sequence (Q16531 whole entry partner): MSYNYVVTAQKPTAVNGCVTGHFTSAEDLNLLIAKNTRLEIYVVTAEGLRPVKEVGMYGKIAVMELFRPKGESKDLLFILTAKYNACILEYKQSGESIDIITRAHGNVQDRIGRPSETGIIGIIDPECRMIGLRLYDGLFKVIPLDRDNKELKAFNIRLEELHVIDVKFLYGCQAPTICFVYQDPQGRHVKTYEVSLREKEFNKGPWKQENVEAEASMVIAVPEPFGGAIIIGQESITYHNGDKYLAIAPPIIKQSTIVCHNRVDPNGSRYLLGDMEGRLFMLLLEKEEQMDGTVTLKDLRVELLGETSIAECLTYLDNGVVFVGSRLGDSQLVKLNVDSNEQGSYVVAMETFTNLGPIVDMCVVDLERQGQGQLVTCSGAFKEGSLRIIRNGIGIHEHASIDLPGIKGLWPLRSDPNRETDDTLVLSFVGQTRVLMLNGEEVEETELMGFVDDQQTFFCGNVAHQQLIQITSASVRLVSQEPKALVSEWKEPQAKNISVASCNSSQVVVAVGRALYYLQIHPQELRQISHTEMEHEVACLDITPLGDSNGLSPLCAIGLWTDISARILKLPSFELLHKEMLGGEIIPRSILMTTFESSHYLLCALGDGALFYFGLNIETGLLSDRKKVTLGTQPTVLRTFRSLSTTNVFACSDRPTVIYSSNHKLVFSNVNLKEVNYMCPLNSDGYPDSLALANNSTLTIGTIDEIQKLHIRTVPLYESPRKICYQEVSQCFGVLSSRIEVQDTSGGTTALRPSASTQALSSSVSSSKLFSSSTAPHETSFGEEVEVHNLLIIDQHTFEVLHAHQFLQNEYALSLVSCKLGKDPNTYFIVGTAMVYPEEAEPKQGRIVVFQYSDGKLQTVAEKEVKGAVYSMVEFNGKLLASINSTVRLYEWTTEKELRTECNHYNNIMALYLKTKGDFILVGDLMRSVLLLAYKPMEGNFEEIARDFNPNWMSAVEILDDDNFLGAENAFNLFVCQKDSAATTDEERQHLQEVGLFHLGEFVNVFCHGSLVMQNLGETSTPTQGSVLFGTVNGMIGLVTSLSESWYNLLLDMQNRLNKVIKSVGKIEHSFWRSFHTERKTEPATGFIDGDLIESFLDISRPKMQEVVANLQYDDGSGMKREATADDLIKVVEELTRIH

Row | Compound | EC50 (CRBN-DDB1) [nM] | EC50 (CRBN-DDB1; HTRF class, Cereblon binding) [nM] | Dmax (NEK7; read-out: NEK7 NanoBiT Dmax) [%] | Dmax (NEK7; [1]) [%] | DC50 (NEK7; read-out: NEK7 NanoBiT DC50) [nM] | DC50 (NEK7; [2]) [nM]
1 | CC(C)(C(=O)NCc1cc(F)c(C2CCC(=O)NC2=O)c(Cl)c1)c1ccc(C(F)F)nn1 (stereo not drawn) [Compound 280] | 290 | 100 to 1000 | 60 | 50 to 75 | 143 | 100 to 1000
2 | Cc1ccnc(C(C)(C)C(=O)NCc2cc(Cl)c(C3CCC(=O)NC3=O)c(Cl)c2)n1 (stereo not drawn) [Compound 160] | 200 | 100 to 1000 | 76 | > 75 | 34 | ≤ 100
3 | COc1cnc(C(C)(C)C(=O)NCc2cc(F)c(C3CCC(=O)NC3=O)c(Cl)c2)nc1 (stereo not drawn) [Compound 256] | 80 | ≤ 100 | 85 | > 75 | 11 | ≤ 100
4 | CC(C)(C(=O)NCc1cc(Cl)c(C2CCC(=O)NC2=O)c(Cl)c1)c1ccc2[nH]c(=O)oc2c1 (stereo not drawn) [Compound 77] | 70 | ≤ 100 | 95 | > 75 | 3 | ≤ 100
5 | Cc1cncnc1C(C)(C)C(=O)NCc1cc(Cl)c(C2CCC(=O)NC2=O)c(Cl)c1 (stereo not drawn) [Compound 158] | 320 | 100 to 1000 | 91 | > 75 | 8 | ≤ 100
6 | CC(C)(C(=O)NCc1cc(Cl)c(C2CCC(=O)NC2=O)c(Cl)c1)c1nccc(C(F)(F)F)n1 (stereo not drawn) [Compound 174] | 180 | 100 to 1000 | 77 | > 75 | 30 | ≤ 100
7 | Cc1nnc(C(C)(C)C(=O)NCc2cc(Cl)c([C@H]3CCC(=O)NC3=O)c(Cl)c2)o1 (single isomer, unassigned) [Compound 225] | 6560 | > 1000 | 49 | ≤ 50 | 1000 | > 1000
8 | O=C1CCC(c2c(Cl)cc(CNC(=O)C3(c4ccc(F)cc4)CC(F)(F)C3)cc2Cl)C(=O)N1 (stereo not drawn) [Compound 139, N-(3,5-dichloro-4-(2,6-dioxopiperidin-3-yl)benzyl)-3,3-difluoro-1-(4-fluorophenyl)cyclobutane-carboxamide] | 40 | ≤ 100 | 90 | > 75 | 8 | ≤ 100
9 | COCc1ccc(C(C)(C)C(=O)NCc2cc(Cl)c(C3CCC(=O)NC3=O)c(Cl)c2)nn1 (stereo not drawn) [Compound 228] | 150 | 100 to 1000 | 85 | > 75 | 18 | ≤ 100
10 | COc1conc1C(C)(C)C(=O)NCc1cc(F)c(C2CCC(=O)NC2=O)c(Cl)c1 (stereo not drawn) [Compound 268] | 120 | 100 to 1000 | 88 | > 75 | 11 | ≤ 100
11 | CC(C)(C(=O)NCc1cc(Cl)c(C2CCC(=O)NC2=O)c(Cl)c1)c1ccns1 (stereo not drawn) [Compound 125] | 70 | ≤ 100 | 71 | 50 to 75 | 54 | ≤ 100
12 | COc1ccc(C(C)(C)C(=O)NCc2cc(F)c(C3CCC(=O)NC3=O)c(Cl)c2)nn1 (stereo not drawn) [Compound 262] | 80 | ≤ 100 | 88 | > 75 | 12 | ≤ 100
13 | CC(C)(C(=O)NCc1cc(F)c(C2CCC(=O)NC2=O)c(Cl)c1)c1nocc1C(F)(F)F (stereo not drawn) [Compound 278] | 190 | 100 to 1000 | 71 | 50 to 75 | 76 | ≤ 100
14 | CC(C)(C(=O)NCc1cc(Cl)c(C2CCC(=O)NC2=O)c(Cl)c1)c1cc(C#N)ccn1 (stereo not drawn) [Compound 157] | 190 | 100 to 1000 | 60 | 50 to 75 | 178 | 100 to 1000
15 | CC(C)(C(=O)NCc1cc(F)c(C2CCC(=O)NC2=O)c(Cl)c1)c1nc2ccccc2o1 (stereo not drawn) [Compound 249] | 70 | ≤ 100 | 87 | > 75 | 7 | ≤ 100
16 | CC(C)(C(=O)NCc1cc(Cl)c(C2CCC(=O)NC2=O)c(Cl)c1)c1ccccn1 (stereo not drawn) [Compound 20] | 70 | ≤ 100 | 86 | > 75 | 13 | ≤ 100
17 | CC(C)(C(=O)NCc1cc(Cl)c(C2CCC(=O)NC2=O)c(Cl)c1)c1ccc2c(c1)CNS2(=O)=O (stereo not drawn) [Compound 40] | 100 | ≤ 100 | 93 | > 75 | 8 | ≤ 100
18 | CN(C)c1ccc(C(C)(C)C(=O)NCc2cc(Cl)c(C3CCC(=O)NC3=O)c(Cl)c2)cc1 (stereo not drawn) [Compound 71] | 140 | 100 to 1000 | 90 | > 75 | 9 | ≤ 100
19 | CCOc1cnc(C(C)(C)C(=O)NCc2cc(F)c(C3CCC(=O)NC3=O)c(Cl)c2)cn1 (stereo not drawn) [Compound 252] | 50 | ≤ 100 | 93 | > 75 | 3 | ≤ 100
20 | CC(C)(C(=O)NCc1cc(Cl)c(C2CCC(=O)NC2=O)c(Cl)c1)c1ccc2nccnc2c1 (stereo not drawn) [Compound 49] | 70 | ≤ 100 | 99 | > 75 | 0.1 | ≤ 100
21 | CC(C)(C(=O)NCc1cc(Cl)c(C2CCC(=O)NC2=O)c(Cl)c1)c1ncco1 (stereo not drawn) [Compound 124] | 140 | 100 to 1000 | 73 | 50 to 75 | 78 | ≤ 100
22 | CC(C)(C(=O)NCc1cc(Cl)c(C2CCC(=O)NC2=O)c(Cl)c1)c1ccc(S(N)(=O)=O)c(F)c1 (stereo not drawn) [Compound 39, N-(3,5-dichloro-4-(2,6-dioxopiperidin-3-yl)benzyl)-2-(3-fluoro-4-sulfamoylphenyl)-2-methylpropanamide] | 50 | ≤ 100 | 97 | > 75 | 2 | ≤ 100
23 | CC(C)(C(=O)NCc1cc(Cl)c(C2CCC(=O)NC2=O)c(Cl)c1)c1cc(F)ccn1 (stereo not drawn) [Compound 149] | 130 | 100 to 1000 | 85 | > 75 | 12 | ≤ 100
24 | Cn1c(F)cc(C(C)(C)C(=O)NCc2cc(Cl)c(C3CCC(=O)NC3=O)c(Cl)c2)cc1=O (stereo not drawn) [Compound 172] | 190 | 100 to 1000 | 97 | > 75 | 2 | ≤ 100
25 | CC(C)(C(=O)NCc1cc(Cl)c(C2CCC(=O)NC2=O)c(Cl)c1)c1ccc(O)c(F)c1 (stereo not drawn) [Compound 80] | 30 | ≤ 100 | 97 | > 75 | 1 | ≤ 100
26 | CC(C)(C(=O)NCc1cc(Cl)c(C2CCC(=O)NC2=O)c(Cl)c1)c1cc(C2CC2)on1 (stereo not drawn) [Compound 185] | 220 | 100 to 1000 | 83 | > 75 | 15 | ≤ 100
